The text below walks through data of US20080163390A1, “METHODS AND COMPOSITIONS FOR PROVIDING SA-INDEPENDENT PATHOGEN RESISTANCE IN PLANTS” (UNIVERSITY OF KENTUCKY RESEARCH FOUNDATION, priority 2007, published 2008).

For assay [1], the system named is Turnip Crinkle Virus (TCV). The assay can be described thus: TCV resistance after exogenous application of SA or glycerol. As to conditions: for resistance to TCV (percentage of resistant plants): inoculated 48 h post-treatment, analyzed 3 weeks post-inoculation. It counts as in vivo, Arabidopsis. From the text: (§1) (A) PR-1 gene expression and 18:1 content in water (W)- and glycerol (G)-treated plants. Ethidium bromide staining of rRNA was used as a loading control. The 18:1 levels are a mean of six independent replicates. (B) RT-PCR analyses showing expression of HRT and SSI4 genes in water- and glycerol-treated plants shown in A. The level of β-tubulin was used as an internal control to normalize the amount of cDNA template. (C) Visible HR formation in water (W)- and glycerol (G)-treated HRT sid2, HRT pad4 and HRT act1 plants at 3 dpi. (D) Percentage TCV resistant plants obtained after exogenous application of water, SA or glycerol. Wild type (HRT or hrt), HRT sid2, HRT pad4 and HRT act1 plants were inoculated 48 h post-treatment and resistance was analyzed 3-weeks post-inoculation. The number of plants tested are indicated above each bar. Asterisk indicates 100% susceptibility. (E) Systemic spread of TCV to uninoculated tissue in TCV-inoculated plants. RNA was extracted from the uninoculated tissues at 18 dpi and analyzed for the presence of the viral transcripts (TCV-U). Ethidium bromide staining of rRNA was used as a loading control. (F) Typical morphological phenotypes of TCV-inoculated plants that were sprayed either with water (W) or glycerol (G) prior to inoculation. Plants were photographed at 18 dpi.
(§2) Pathogen inoculations. Transcripts synthesized in vitro from a cloned cDNA of TCV using T7 RNA polymerase were used for viral infections. For inoculations, the viral transcript was suspended at a concentration of 0.05 μg/μl in inoculation buffer, and the inoculation was performed. After viral inoculations, the plants were transferred to a Conviron MTR30 reach-in chamber maintained at 22° C., 65% relative humidity and 14 hour photoperiod. Inoculations with Pseudomonas syringae were conducted.
(§3) SA and glycerol treatments. SA and glycerol treatments were carried out by spraying 500 μM and 50 mM solutions, respectively, prepared in sterile water.

Assay [2] concerns 18:1 content. The assay can be described thus: Fatty acid analysis of leaf 18:1 content (gas chromatography). The class given is in vivo, Arabidopsis. From the text: FIG. 6A-B depicts an abbreviated scheme for lipid biosynthesis and in plant oleic acid levels after 18:1 infiltrations. (A) De novo fatty acid (FA) synthesis occurs exclusively in the plastids of all plant cells and leads to the synthesis of palmitic acid (16:0)-acyl carrier protein (ACP) and oleic acid (18:1)-ACP. These FAs enter glycerolipid synthesis either via the prokaryotic pathway in the inner envelope of chloroplasts or are exported out of plastids as CoA thioesters to enter the eukaryotic glycerolipid synthesis pathway. Symbols for various components are: CoA, coenzyme A; Lyso-PA, acyl-G3P; PA, phosphatidic acid; PG, phosphatidylglycerol; MGDG, monogalactosyldiacylglycerol; DGDG, digalactosyldiacylglycerol; SL, sulfolipid; DAG, diacylglycerol; DHAP, dihydroxyacetone phosphate. (B) In planta oleic acid levels after 18:1 infiltrations. The HRT ssi2 sid2 leaves were infiltrated with water or 1 mM oleic acid and the fatty acid levels were determined 24 h post treatment from treated and untreated leaves. The 18:1 levels from the untreated wild type plant (HRT) were used as a control.
Fatty acid analysis and oleic acid infiltration. Fatty acid analysis was carried out using gas chromatorgraphy. Oleic acid (Sigma) was dissolved in water and injected into leaves using a needle-less syringe. […]

Assay [3] has as its system PR-1. In words: PR-1 gene expression (northern analysis) in glycerol-treated plants. As to conditions: exogenous glycerol. It counts as in vivo, Arabidopsis.
From the text: as §1, with “Asterisk indicates 100% susceptibility. (E) Systemic spread of TCV to uninoculated tissue in TCV-inoculated plants.” left out, “Ethidium bromide staining of rRNA was used as a loading control. (F) Typical morphological phenotypes of TCV-inoculated plants that were sprayed either with water (W) or glycerol (G) prior to inoculation. Plants were photographed at 18 dpi.” left out
(§4) RNA extraction, RT-PCR and northern analyses. […] RNA quality and concentration were determined by gel electrophoresis and determination of A260. […] Two-to-three independent RNA preparations were used for RT-PCR and each of these were analyzed at least twice by RT-PCR. […] The number of amplification cycles was reduced to 22-25 in order to evaluate and quantify any differences among transcript levels before they reached saturation.

For assay [4], the system named is HRT. In words: HRT transcript levels (RT-PCR) in glycerol-treated plants. The conditions noted are these: exogenous glycerol. It counts as in vivo, Arabidopsis.
From the text: as §1, with “Asterisk indicates 100% susceptibility. (E) Systemic spread of TCV to uninoculated tissue in TCV-inoculated plants.” left out, “Ethidium bromide staining of rRNA was used as a loading control. (F) Typical morphological phenotypes of TCV-inoculated plants that were sprayed either with water (W) or glycerol (G) prior to inoculation. Plants were photographed at 18 dpi.” left out
as §4

The test system of assay [5] is Turnip Crinkle Virus (TCV). In words: Visible HR formation to TCV in glycerol-treated plants. The class given is in vivo, Arabidopsis. The conditions noted are these: glycerol-treated wild-type, HRT sid2 and HRT pad4 plants; 3 dpi.
From the text: as §1
Pathogen inoculations. […]

Assay [6] relates to SA levels. In words: SA levels after glycerol application. The class given is in vivo, Arabidopsis. As to conditions: dependent on functional SID2 protein. Here is the method: as §3
Exogenous application of glycerol confers resistance to TCV in an SA-independent but ACT1-dependent manner. Additional evidence supporting a role for 18:1 in regulating HRT gene expression was obtained by glycerol treatment of several genotypes. […] This is because the act1 plants are blocked in the step leading to the acylation of glycerol-3-phosphate with 18:1. […] Since the upregulation of HRT abolishes visible HR to TCV, the development of HR in various glycerol-treated plants was monitored. […] Thus, although the SA-mediated induction of HRT is dependent on PAD4, 18:1-mediated induction of HRT is independent of PAD4.

Assay [7] deals with Turnip Crinkle Virus (TCV). In words: TCV replication and systemic spread after 18:1 infiltration of leaves. It counts as in vivo, Arabidopsis.
From the text: (A) RT-PCR analyses showing basal level expression of HRT in HRT ssi2 act1 and HRT ssi2 gly1 plants. The level of β-tubulin was used as an internal control to normalize the amount of cDNA template. The 18:1 levels are a mean of six independent replicates. (B) Systemic spread of TCV to uninoculated tissue in TCV-inoculated plants. RNA was extracted from the uninoculated tissues at 18 dpi and analyzed for the presence of the viral transcripts (TCV-U). Ethidium bromide staining of rRNA was used as a loading control. (C) Typical morphological phenotypes of mock-and TCV-inoculated HRT ssi2 act1 and HRT ssi2 gly1 plants. […] Plants were photographed at 8 dpi. (D) Effect of 18:1 infiltrations on viral replication in the inoculated leaf. Oleic acid (O, 1 mM) or water (W) was injected 24 h before or after (last two lanes) TCV inoculation and the samples were harvested 3 days post inoculation (dpi).
as §2
Fatty acid analysis and oleic acid infiltration. Fatty acid analysis was carried out using gas chromatorgraphy. Oleic acid (Sigma) was dissolved in water and injected into leaves using a needle-less syringe. To determine the 18:1 concentration required to elevate the leaf 18:1 content in ssi2 plants to wild-type levels, 50 μm to 10 mM were injected into ssi2 leaves followed by fatty acid profiling. A concentration of 500 μm to 1 mM was considered optimal, with similar results being obtained upon injection of either of these concentrations.
RNA extraction, RT-PCR and northern analyses. Small-scale extraction of RNA from one or two leaves was performed in the TRIzol reagent (Invitrogen, Gaihersburg, Md.) following the manufacturer's instructions. RNA quality and concentration were determined by gel electrophoresis and determination of A260. Northern blot analysis and synthesis of random primed probes for PR-1 were carried out. Reverse transcription (RT) and first strand cDNA synthesis was carried out using Superscript II (Invitrogen). Two-to-three independent RNA preparations were used for RT-PCR and each of these were analyzed at least twice by RT-PCR. The RT-PCR was carried out for 35 cycles in order to determine absolute levels of transcripts. The number of amplification cycles was reduced to 22-25 in order to evaluate and quantify any differences among transcript levels before they reached saturation. […]

Assay [8] relates to Turnip Crinkle Virus (TCV). As to conditions: exogenous SA prior to dark-treatment of Di-17 plants; cited from earlier work.

For the compound `OCC(O)CO` [glycerol], the “resistance to TCV (percentage of resistant plants)” value in assay [1] (Col-0 (hrt) plants) is recorded as “not in HRT act1 or Col-0 plants”; in assay [1] (HRT act1 plants), “not in HRT act1 or Col-0 plants”; in assay [1] (HRT pad4 plants), “significantly enhanced resistance”; in assay [1] (HRT sid2 plants), “enhanced resistance to TCV”. For the same compound, the “more TCV-resistant plants in comparison to SA pretreatment” value in assay [1] (HRT sid2 plants, glycerol vs SA pretreatment) was ~30%. For the same compound, the “18:1 content” value in assay [2] (exogenous glycerol (50 mM spray), wild-type, HRT sid2 and HRT pad4 plants) is reported as “lowered 18:1 content”. The PR-1 gene expression result in assay [3] (HRT sid2 plants) is “failed to induce PR-1 gene expression”; in assay [3] (wild-type and HRT pad4 plants), “upregulation of PR-1 gene expression”. Besides, the HRT transcript levels entry is “not in HRT act1” in assay [4] (HRT act1 plants); “induced HRT transcript levels” in assay [4] (wild-type, HRT sid2 and HRT pad4 plants). In assay [5], the “visible HR to TCV” value is “developed no visible HR”. Moreover, in assay [6], the SA levels entry is reported as “induced high levels of SA”.

On to `CCCCCCCC/C=C\CCCCCCCC(=O)O` [18:1, oleic acid], for which the “TCV replication in inoculated leaf” value in assay [7] (18:1 infiltrated 24 h after TCV inoculation) was “remained unaffected”. Also, in assay [7] (HRT ssi2 sid2 leaves, 18:1 infiltrated before TCV inoculation), the “increase in amount of TCV transcript in inoculated leaf” value is on record as 6-8 fold. The “systemic spread of the virus” value in assay [7] (HRT ssi2 sid2 plants, 18:1 injections) is “did not allow systemic spread of the virus”. The “TCV replication (TCV transcript) in the inoculated leaves” value in assay [7] (wild-type Di-17 or Col-0 leaves, 18:1 (1 mM) vs water injected 24 h before TCV inoculation, 3 dpi) is recorded as “did not appear to alter TCV replication”. Moreover, in assay [2] (HRT ssi2 sid2, site of infiltration vs untreated leaves, 24 h post treatment), the “18:1 levels after exogenous application of 18:1” value is “only normalized 18:1 levels locally”.

On to `O=C(O)c1ccccc1O` [SA, Salicylic acid, reference compound], for which the “resistance to TCV (percentage of resistant plants)” value is given as “substantial increase” in assay [1] (HRT act1 plants) and “only a marginal increase” in assay [1] (HRT pad4 plants). In assay [8], the “dark-triggered susceptibility to TCV” value is listed as “prevents dark-triggered susceptibility”.
